# Literature values in publication PMC10855781 (International Journal of Molecular Sciences, 2024).
# Read-outs that look alike come from different tables or passages of the source.
# Key:
# [1] = test system: mice
# From the text: The most widely studied oxime-linked daunomycin–peptide conjugates were GnRH-III-based derivatives. GnRH-III (<[…]-NH2, where <E is pyroglutamic acid) was first isolated from sea lamprey and has a very low-level hormonal effect in mammals, but binds to both the human GnRH receptors (GnRH-IR and GnRH-IIR). […] Nevertheless, the results of the in vivo acute and chronic toxicity measureme ...
# [2] = test system: HT-29 human colon cancer; conditions: SCID mice, single i.p. 2.5 mg/kg (4.43 μmol); ref [81]
# Protocol: Table 3 In vivo tumor growth inhibition of a few relevant Dau-GnRH-III conjugates. | column: HT-29 ^b s.c. SCID [%] || In another experiment, HT-29 human colon cancer was developed s.c. in immunodeficient SCID mice. Dau and two conjugates (with or without a GFLG spacer between the GnRH-III homing peptide and the payload) were used for the treatment. The first i.p. administrations were performed on day 13 after tumor inoculation. All the mice treated once with 2.5 mg/kg body weight (4.43 μmol) free Dau died within 10 days. In contrast, the conjugates at a dose of 15 mg Dau content/kg body weight (26.6 μmol) that refers to 52 mg/kg [^8Lys(Dau=Aoa)]-GnRH-III and 62.5 mg/kg [^8Lys(Dau=Aoa-GFLG)]-GnRH-III co ...
# [3] = test system: C26 colon tumor; conditions: (w) tumor weight reduction, day 13; treatments days 4 and 7; conjugates 26.6 μmol/kg (15 mg Dau content), Dau 2 mg/kg; ref [82],[86]
# Protocol: Table 3 In vivo tumor growth inhibition of a few relevant Dau-GnRH-III conjugates. | column: C26 orth. […] In the case of the C26 colon tumor-bearing female Balb/c mice, only a 7% reduction in tumor weight was detected on day 13 after the two treatments on days 4 and 7 with [^8Lys(Dau=Aoa)]-GnRH-III, at a 26.6 μmol/kg (15 mg Dau content) dose. […] It is worth ment ...
smiles,measurement,setting,value
"COc1cccc2c1C(=O)c1c(O)c3c(c(O)c1C2=O)C[C@@](O)(C(C)=O)C[C@@H]3O[C@H]1C[C@H](N)[C@H](O)[C@H](C)O1 [Dau, daunomycin]",dose with remarkable toxicity,[1]; healthy mice,> 2 mg/kg
same,dose with remarkable toxicity,[1]; immunodeficient mice,> 1 mg/kg
same,time within which all treated mice died,[2],≤ 10 days
same,C26 orth. Balb/c tumor growth inhibition (w),[3],24.4%
